Data on two substances can be found in patent publication US12728168B2, “Anti-CEA antibody-exatecan analog conjugate and pharmaceutical use thereof” (JIANGSU HENGRUI MEDICINE CO., LTD., priority 2019, dated 2026).

For series [1], the system named is monkey CEA expressed on CHO cell surface (cynoCEA-CHO). Description: FACS binding assay, cynoCEA-CHO cells. On the set-up: species or system cynomolgus monkey. Conditions: Table 17, humanized antibodies and controls. On the procedure: In order to detect the binding of the antibody to the CEA protein on the cell surface, the binding activity of the antibody was determined by FACS using cells expressing CEA on the cell surface. Cells were harvested and centrifuged at 400 g at 4° C. for 5 min. Pre-cooled PBS containing FBS at final concentration 10% was added, and the mixture was centrifuged at 400 g at 4° C. for 5 min; the procedures were repeated twice. […] The plate was incubated at 4° C. for 60 min and centrifuged, and the supernatant was removed. 250 μL of pre-cooled PBS containing FBS at final concentration 10% was added to each well to resuspend the cells, and the suspension was centrifuged at 400 g at 4° C. for 5 min, followed by the removal of the supernatant; the procedures were repeated twice. 50 μL of 1:200 diluted secondary antibody Alexa Fluor@488 goat anti-human IgG (H+L) (Lifetechologies, Cat #A11013) was added. The plate was incubated in the dark at 4° C. for 45 min and centrifuged, and the supernatant was removed. 250 μL of pre-cooled PBS containing FBS at final concentration 10% was added to each cell to resuspend the cells, and the suspension was centrifuged at 400 g at 4° C. for 5 min; the procedures were repeated twice. 100 μL of pre-cooled PBS was added to each well to resuspend the cells. The plate was analyzed by a flow cytometer (BD, FACSverse) for fluorescence signal values.
monkey CEA expressed on CHO cell surface (cynoCEA-CHO), sequence (as listed by the source): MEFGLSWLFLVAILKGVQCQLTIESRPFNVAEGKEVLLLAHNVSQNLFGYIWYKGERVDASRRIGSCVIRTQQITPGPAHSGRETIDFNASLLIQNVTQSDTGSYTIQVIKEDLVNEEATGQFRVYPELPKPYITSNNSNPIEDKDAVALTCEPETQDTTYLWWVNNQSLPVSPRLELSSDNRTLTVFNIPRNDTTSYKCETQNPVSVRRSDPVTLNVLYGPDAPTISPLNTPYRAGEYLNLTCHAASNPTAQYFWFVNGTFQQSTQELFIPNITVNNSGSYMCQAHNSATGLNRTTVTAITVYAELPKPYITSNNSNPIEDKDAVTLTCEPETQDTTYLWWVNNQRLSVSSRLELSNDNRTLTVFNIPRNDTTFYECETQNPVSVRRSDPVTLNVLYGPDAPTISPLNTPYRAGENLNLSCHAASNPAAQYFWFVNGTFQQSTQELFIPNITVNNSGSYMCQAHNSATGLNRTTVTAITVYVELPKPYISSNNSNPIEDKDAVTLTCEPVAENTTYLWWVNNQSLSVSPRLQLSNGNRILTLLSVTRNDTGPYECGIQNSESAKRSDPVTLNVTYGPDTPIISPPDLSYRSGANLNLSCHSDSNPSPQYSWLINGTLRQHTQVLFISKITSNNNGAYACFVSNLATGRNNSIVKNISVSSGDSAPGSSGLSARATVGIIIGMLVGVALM
For orientation: A flow cytometer gives signals particle by particle.

The target of a further series is T1, human soluble CEA (Homo sapiens, UniProt P06731).
T1 construct: His6 (C); made in house; host or cells: 293E cells
T1 sequence (P06731 with tags, fused parts or gaps): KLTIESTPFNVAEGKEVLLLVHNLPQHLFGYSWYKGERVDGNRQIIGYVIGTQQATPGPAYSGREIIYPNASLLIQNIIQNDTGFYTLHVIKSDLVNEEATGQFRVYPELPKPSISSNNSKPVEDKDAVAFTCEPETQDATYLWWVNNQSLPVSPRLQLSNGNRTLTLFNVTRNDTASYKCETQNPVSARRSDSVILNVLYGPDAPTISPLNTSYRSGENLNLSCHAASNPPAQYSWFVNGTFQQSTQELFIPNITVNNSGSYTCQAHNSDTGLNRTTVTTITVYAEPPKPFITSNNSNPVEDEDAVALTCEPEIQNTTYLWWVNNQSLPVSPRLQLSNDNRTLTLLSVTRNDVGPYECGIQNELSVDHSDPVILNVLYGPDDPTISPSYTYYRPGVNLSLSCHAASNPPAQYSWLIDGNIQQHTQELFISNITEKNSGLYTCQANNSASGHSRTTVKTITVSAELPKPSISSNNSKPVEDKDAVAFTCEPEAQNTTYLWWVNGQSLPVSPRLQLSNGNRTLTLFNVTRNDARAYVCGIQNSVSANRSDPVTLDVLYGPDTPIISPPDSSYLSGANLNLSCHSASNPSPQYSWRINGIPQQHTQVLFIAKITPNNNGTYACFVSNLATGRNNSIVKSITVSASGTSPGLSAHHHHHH
As to the kind of experiment: Affinity of antibodies for soluble CEA using Biacore. The series is classed as binding. Particulars: 1:1 Langmuir. The method, then: The affinity of a test humanized antibody for human and monkey soluble CEA was determined using a Biacore (GE, T200) instrument. According to the method in the instructions of a human antibody capture kit (GE, Cat #BR-1008-39), the human antibody capture antibody was covalently conjugated to a biosensor chip CM5 (GE, Cat #BR-1005-30) of the Biacore instrument to affinity-capture a certain amount of the test antibody, then a series of concentration gradients of soluble CEA antigens were allow to flow through the surface of the chip, and reaction signals were detected in real time using Biacore, so that an association and dissociation curve was obtained. After each cycle of dissociation was completed, the biochip was washed and regenerated with a regeneration solution prepared in the human antibody capture kit. The data obtained from the experiment were fitted with the (1:1) Langmuir model using BIAevaluation version 4.1 software to obtain affinity values.
For orientation: Surface plasmon resonance follows binding to a sensor surface in real time, without labels.

Series [2] concerns the target T2, human CEACAM1 expressed on CHO cell surface (CEACAM1-CHO) (Homo sapiens, UniProt P13688).
T2 construct: expressed in transfected cells; host or cells: CHO cells
T2 sequence (P13688 35-526): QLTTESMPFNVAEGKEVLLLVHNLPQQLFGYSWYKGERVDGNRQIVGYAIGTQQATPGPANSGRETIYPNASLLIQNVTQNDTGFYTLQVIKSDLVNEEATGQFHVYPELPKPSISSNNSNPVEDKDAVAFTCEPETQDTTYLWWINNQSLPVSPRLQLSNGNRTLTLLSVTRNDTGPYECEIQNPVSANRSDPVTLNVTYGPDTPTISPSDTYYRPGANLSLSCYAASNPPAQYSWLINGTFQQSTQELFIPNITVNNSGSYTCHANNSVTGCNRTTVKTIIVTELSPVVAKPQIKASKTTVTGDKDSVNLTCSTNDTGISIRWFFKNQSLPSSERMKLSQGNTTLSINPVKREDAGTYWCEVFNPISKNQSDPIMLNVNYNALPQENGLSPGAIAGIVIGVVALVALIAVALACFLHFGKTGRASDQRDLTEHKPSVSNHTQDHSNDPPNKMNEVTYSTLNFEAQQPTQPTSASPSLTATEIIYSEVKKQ
Description: FACS binding assay, CEACAM1-CHO cells. Conditions: Table 17, humanized antibodies and controls. On the procedure: In order to detect the binding of the antibody to the CEA protein on the cell surface, the binding activity of the antibody was determined by FACS using cells expressing CEA on the cell surface. Cells were harvested and centrifuged at 400 g at 4° C. for 5 min. Pre-cooled PBS containing FBS at final concentration 10% was added, and the mixture was centrifuged at 400 g at 4° C. for 5 min; the procedures were repeated twice. The cells were seeded into a 96-well plate at 10^5 cells/well, and 100 μL of gradient diluted antibody solution was added to each well. The plate was incubated at 4° C. for 60 min and centrifuged, and the supernatant was removed. 250 μL of pre-cooled PBS containing FBS at final concentration 10% was added to each well to resuspend the cells, and the suspension was centrifuged at 400 g at 4° C. for 5 min, followed by the removal of the supernatant; the procedures were repeated twice. 50 μL of 1:200 diluted secondary antibody Alexa Fluor@488 goat anti-human IgG (H+L) (Lifetechologies, Cat #A11013) was added. The plate was incubated in the dark at 4° C. for 45 min and centrifuged, and the supernatant was removed. 250 μL of pre-cooled PBS containing FBS at final concentration 10% was added to each cell to resuspend the cells, and the suspension was centrifuged at 400 g at 4° C. for 5 min; the procedures were repeated twice. 100 μL of pre-cooled PBS was added to each well to resuspend the cells. The plate was analyzed by a flow cytometer (BD, FACSverse) for fluorescence signal values. Higher values indicate higher binding activity of the antibody to the protein on the cell surface. Binding curves were plotted using PRISM analysis software based on the assay results, and the EC50 values for the binding activity of the antibody to the cell surface proteins human CEA (MKN45 human gastric cancer cells, Nanjing Kebai Biotechnology Co., Ltd., Cat #CBP60488), cynoCEA-CHO and CEACAM1-CHO were obtained by fitting.

Series [3] relates to MKN45 xenograft tumor model. As to the kind of experiment: In vivo inhibitory activity against tumors, MKN45 xenograft. The arrangement: species or system BALB/c nude mice. On the procedure:
(§1) The in vivo efficacy of the ADC molecules was evaluated using LS174T and MKN45 xenograft tumor models. BALB/c nude mice (SPF grade, Shanghai Slac Laboratory Animal Co., Ltd., certificate no.: 201833814, license no.: SCXK (Jiangsu) 2016-0010) were housed in a 12/12 hour light/dark cycle at a temperature of 23±1° C. with humidity at 40-50%, with food (standard sterilized feed for mice) and water ad libitum. The mice were acclimatized for 10 days in a laboratory environment before the start of the experiment and then inoculated subcutaneously on the right flank with LS174T cells (5×10^5 cells/mouse) or MKN45 cells (4×10^6 cells/mouse). Tumors were allowed to grow to a size of about 150 mm^3, and then the mice were randomized into groups of 8. After grouping, the mice in the experimental groups were intraperitoneally injected with ADC samples in a dose of 1 mg/kg or 3 mg/kg, and those in the blank control group were intraperitoneally injected with PBS, only once. The sizes of the tumors on the mice were observed, measured and recorded.

The subject of the next series is HCT116 cultured alone. Description: Bystander effect test, HCT116 cultured alone. The series is classed as cell-based. Particulars: ADC 4 nM, 5 days, FIG. 2. The method, then:
(§2) In order to evaluate the bystander effect and cytotoxicity of the ADC, the CEA-highly expressing cell line MKN45 and the CEA-expressing negative cell line HCT116 were cultured in a 6-well cell culture plate for 24 h, and then an ADC sample was added at a final concentration of 4 nM. The cells were cultured in a cell incubator at 37° C. for another 5 days.
(§3) The cells were digested with pancreatin and collected, and CEA Monoclonal Antibody FITC (ThermoFisher, Cat #MA1-80578) was added at a final concentration of 10 μg/mL. The cells were incubated on ice in the dark for 1 h, washed twice with PBS, and counted using a flow cytometer.

The subject of series [4] is LS174T (with moderate CEA expression). Description: Cytotoxicity of ADCs, Cell Titer-Glo, LS174T. It is filed as cell-based. Conditions: for IC50: 5 days. The method, then: (§4) Following conjugation of humanized CEA antibodies to toxin 2-A, cytotoxicity of each ADC to cancer cell lines with different CEA expression levels was evaluated. The CEA-highly expressing cells MKN45, the CEA-moderately expressing cells LS174T and the CEA-expressing negative cells HCT116 were plated in 96-well plates; gradient-diluted ADC samples were added to the cells the next day, and the cells were cultured at 37° C. for 5 days. 50 μL of Cell Titer-Glo reagent (Promega, Cat #G9242) was added to each well, and after incubation for 10 min in the dark, the luminescence signals were detected by a cell imaging detector (BioTek, Cytation5). An inhibition curve was plotted with the detection results using PRISM analysis software, and fitted to obtain an IC50 value of the inhibitory activity of the ADC against cell proliferation.
A general note: Cellular ATP, detected with luciferase, serves as a proxy for viable cell number.

In series [5] the test system is MKN45 (with high CEA expression). Description: Cytotoxicity of ADCs, Cell Titer-Glo, MKN45. The series is classed as cell-based, human. Conditions: for IC50: 5 days. On the procedure:
as §4

Series [6] deals with LS174T xenograft tumor model. Description: In vivo inhibitory activity against tumors, LS174T xenograft. The arrangement: species or system BALB/c nude mice. On the procedure: as §1
The test system of series [7] is HCT116 (without CEA expression). Description: Cytotoxicity of ADCs, Cell Titer-Glo, HCT116. It is filed as cell-based. Particulars: for IC50: 5 days. On the procedure:
as §4

Series [8] has as its system MKN45 and HCT116 co-cultured. Description: Bystander effect and cytotoxicity, MKN45 and HCT116 co-cultured. It is filed as cell-based. Particulars: ADC 4 nM, 5 days, FIG. 2. On the procedure: as §2, §3
[9] abbreviates: ADC batches of high DAR (6.29-7).
The mark [10] stands for this setting: ADC batches of low DAR (3.97-4.8).

With Lmab [reference compound], the “EC50 (nM) cynoCEA-CHO” value in series [1] is “No binding”. Moreover, in the series with human soluble CEA, the “ka” value was 55800 M⁻¹ s⁻¹ and the “kd” value turned out to be 0.000331 s⁻¹. Also, the “EC50 (nM) CEACAM1-CHO” value in series [2] is “No binding”.

With “Lmab-CL2A-SN38: control ADC: toxin CL2A-SN38 conjugated to Lmab (labetuzumab)”, the “Tumor inhibition rate (%)” value in series [3] (3 mpk, intraperitoneal, only once, 3 mg/kg) is on record as 13.51%; in series [6] (3 mpk, intraperitoneal, only once), 33.44%. For the same substance, the “effect on tumor volume” value was “the worst inhibitory effect on tumors” in [3] (FIG. 5, ranking among the 3-mpk groups) and “the worst inhibitory effect on tumors” in series [6] (FIG. 3, ranking among the 3-mpk groups). Further, the “effect on tumor weight” value in series [3] (FIG. 6, last day, ranking among the 3-mpk groups) is recorded as “the worst inhibitory effect on tumors”; in [6] (FIG. 4, last day, ranking among the 3-mpk groups), “the worst inhibitory effect on tumors”. The “toxicity to HCT116 cultured alone” value in the series on HCT116 cultured alone is recorded as “very toxic”. Further, the half-maximal inhibitory concentration (IC50) (commonly the concentration needed to halve the response being measured) in series [4] (setting [9]) was 0.346 nM; in series [4] (setting [10]), 0.662 nM; in series [5] (setting [9]), 0.665 nM; in [5] (setting [10]) it was 1.59 nM; in series [7] (setting [9]) it was 0.428 nM; in series [7] (setting [10]) it was 1.06 nM. Further, the “IC50 ratio HCT116/LS174T” value was 1.24 in series [4] (setting [9]) and 1.60 in series [4] (setting [10]). Also, the “IC50 ratio HCT116/MKN45” value in series [5] (setting [9]) stood at 0.64; in series [5] (setting [10]), 0.66. Also, the “dependence of cytotoxicity on CEA expression level” value in series [7] (MKN45, LS174T and HCT116 compared) is on record as “non-specific cytotoxicity”. In addition, the “bystander effect and cytotoxicity” value in series [8] was “very toxic”.
